“Also recorded” adds a separate entry of the source.
What was measured:
[1] = Permeation through human skin from the preparation of Example 1; type: in vitro ADME
Method: (§1) 200 mg of the preparation made according to Example 1 were applied to bare mouse skin, which were fixed in modified Franz permeation cells as a permeation membrane. The results for the average permeation values for testosterone and drospirenone in μg/cm^2 versus time after application are shown in FIG. 1. The average values are the average of seven experimental runs. The mouse skin used was hairless mouse skin, HsdCpb NMRI-nu/nu, Harlan Bioservice, Walsrode.
(§2) Acceptable Medium for the Franz Cells:
(§3) At 3, 6, 9, 12, 15 and 18 hours samples of 100 μl were removed by an automatic sampling system from the acceptor medium of the Franz cells and injected into an HPLC automatic analyzer.
The preparation from example 1 was tested on human skin (female belly skin from cosmetic reduction, dermatomized at a layer thickness of about 450 μm).
The skin permeation values or mass transport amount for drospirenone and testosterone as a function of time after application of the preparation to the skin are shown in FIG. 2. The open squares indicate the measured permeation values for testosterone in […]. The open circles indicate the permeation values for drospirenone. The vertical lines on the circles and squares are error bars indicating the experimental error.

[2] = Permeation of bare mouse skin in modified Franz permeation cells; type: in vitro ADME; conditions: aqueous ethanolic vehicle (preparation of Example 1, 200 mg), FIG. 1, average of seven runs
Method: as §1, §2, §3
The filled-in circles indicate the measured permeation values for testosterone in FIG. 1. The filled-in squares indicate the permeation values for drospirenone. The vertical lines on the circles and squares are error bars indicating the experimental error.

C[C@]12CC[C@H]3[C@@H](CCC4=CC(=O)CC[C@@]43C)[C@@H]1CC[C@@H]2O [Testosterone]
Mean cumulative Transport ([1]; human skin, preparation of Example 1, time 0 h): 0.00 μg/cm^2 | Mean cumulative Transport ([1]; human skin, preparation of Example 1, time 3 h): 3.62 μg/cm^2 | Mean cumulative Transport ([1]; human skin, preparation of Example 1, time 7 h): 7.72 μg/cm^2 | Mean cumulative Transport ([1]; human skin, preparation of Example 1, time 10 h): 10.70 μg/cm^2 | Mean cumulative Transport ([1]; human skin, preparation of Example 1, time 24 h): 26.57 μg/cm^2 | Mean cumulative Transport ([1]; human skin, preparation of Example 1, time 30 h): 33.31 μg/cm^2 | Mean cumulative Transport ([1]; human skin, preparation of Example 1, time 48 h): 44.35 μg/cm^2

C[C@]12CCC(=O)C=C1[C@@H]1C[C@@H]1[C@H]1[C@@H]3[C@@H]4C[C@@H]4[C@@]4(CCC(=O)O4)[C@@]3(C)CC[C@@H]12 [Drospirenone, drospirenone]
Permeation values relative to those of testosterone ([1]; female, human): about 40% | Mean cumulative Transport ([1]; female, human, 0 h): 0.00 μg/cm^2 | Mean cumulative Transport ([1]; female, human, 3 h): 0.87 μg/cm^2 | Mean cumulative Transport ([1]; female, human, 7 h): 2.04 μg/cm^2 | Mean cumulative Transport ([1]; female, human, 10 h): 2.86 μg/cm^2 | Mean cumulative Transport ([1]; female, human, 24 h): 8.67 μg/cm^2 | Mean cumulative Transport ([1]; female, human, 30 h): 12.13 μg/cm^2 | Mean cumulative Transport ([1]; female, human, 48 h): 19.23 μg/cm^2 | Permeation of mouse skin in vitro compared with testosterone [2]: approximately the same good extent as testosterone; also recorded: permeation values for testosterone are larger than those for drospirenone

Source: patent US20050222106A1, “Drospirenone-containing preparations for transdermal use” (priority 2004, published 2005)
